Entries after “also recorded” stand apart in the source; their conditions may differ. Like-named read-outs stand apart in the source and are kept apart here.
Tests used:
[1] = LD50 determination, tail vein injection; type: in vivo, mice; conditions: both sexes, KunMing (KM), mouse, in vivo, intravenous, KM mice, tail vein injection
Procedure: (§1) 1. Experimental animal: KunMing (KM) mice, provided by Shanghai Slac Laboratory Animal Co., Ltd., half and half of female and male, 6 groups, ten in each group, marked by bitter acid.
(§2) 2. […] Preparing medical solution of equal ratio: dissolving with 0.9% NaCl to prepare the medical solution with the concentration of 336 mg/7 ml, 316.96 mg/7 ml, 299.32 mg/7 ml, 282.52 mg/7 ml, 266.84 mg/7 ml, 252 mg/7 ml.
(§3) 3. Dosage for administration: with 0.5 ml/20 g bottom up.
(§4) 4. Means of administration: tail vein injection
(§5) 5. Experimental method: observing at 0.25 h, 0.5 h, 1 h, 2 h, 4 h, 24 h respectively after administration; then observing once every day 14 days; putting the mice still alive to death on the 15th day and recording the death rate.

KunMing (KM) mice = experiment: LD50 determination, tail vein injection; type: in vivo; conditions: for Death rate in total % Total / Death rate in total % ♀ / Death rate in total % ♂ / Deaths days 1 ♀ / Deaths days 1 ♂ / Deaths days 2 ♀ / Deaths days 2 ♂ / Deaths days 3 ♀ / Deaths days 3 ♂ / Deaths days 4 ♀ / Deaths days 4 ♂ / Deaths hours 0-4 ♀ / Deaths hours 0-4 ♂: tail vein injection
Procedure: as §1, §2, §3, §4, §5

S180 sarcoma [2] = conditions: for 0 d weight / 11 d weight without tumor / Tumor inhibiting rate % / Tumor weight: i.v., S180 sarcoma-bearing mice
Source text: (§6) (1) Sample: 3,4,5,4′-tetramethoxyl-α,β-diphenylethane-3′-O-sodium sulphate (AS) provided by Zhejiang Cell Biomedical Research Co., Ltd., and prepared by the process in Example One. Dissolved by physiological saline for the concentration needed.
(2) Cisplatin: Cisplatin for injection (DDP), Qilu Pharmaceutical Co., Ltd. Batch No.: 5120282DC. Dissolved by physiological saline for preparation.
(3) Control product: Cyclophosphamide for injection (CTX), Jiangsu Hengrui Pharmaceutical Inc. Co. Batch No.: 04123021 Dissolved by physiological saline for preparation.
(§7) (1) KM mouse bearing S180 sarcoma.
(2) 70 KM mice, female, weighting 18-22 g, provided by Zhejing College of Traditional Chinese Medicine.
(1) Drawing ascites under aseptic condition from mouse bearing S180 sarcoma, diluting with physiologic saline 1:3, giving subcutaneous inoculation in the armpit of the right forelimb of the KM mice with 0.2 ml each; dividing the mice into 7 groups randomly the next day, 10 in each group.
(§8) (2) Administering drug to the mice by weight the third day of inoculation, intravenous administration 0.5 ml/20 g […], by weight, and putting them to death on the 11th day after inoculation, weighing the tumor and calculating the rate of tumor inhibition.
(§9) (3) dosage (mg/kg/d) and means of administration:
(§10) AS: 50 mg/kg, tail vein injection
(§11) AS: 100 mg/kg, tail vein injection
(§12) AS: 200 mg/kg, tail vein injection
DDP: 1 mg/kg, tail vein injection
AS+DDP: 50 mg/kg+1 mg/kg, tail vein injection
(§13) CTX: 30 mg/kg, tail vein injection
(§14) Setting up another blank control group, tail vein injection of 0.9% NaCl 0.5 ml.
(§15) (4) Judging the result with the following formula: […]

Lewis lung cancer = experiment: Joint administration of AS and DDP, murine model of Lewis lung cancer (Example Five); type: in vivo, C57BL/6J mice; conditions: for Tumor inhibiting rate % / Tumor weight: i.v., mice bearing Lewis lung cancer
Source text: (1) Sample: 3,4,5,4′-tetramethoxyl-α,β-diphenylethane-3′-O-sodium sulphate (AS), raw material medicine, provided by Zhejiang Cell Biomedical Research Co., Ltd., and prepared by the process in Example One. Batch No.: 061025. Dissolved by physiological saline for the concentration needed.
(2) Cisplatin: Cisplatin for injection (DDP), Qilu Pharmaceutical Co., Ltd. Batch No.: 5120282DC; Dissolved by physiological saline for preparation
(3) Control product: Cyclophosphamide for injection (CTX), Jiangsu Hengrui Pharmaceutical Inc. Co. Batch No.: 04123021. Dissolved by physiological saline for preparation.
(1) C57BL/6J mouse bearing Lewis lung cancer
(2) 70 C57BL/6J mice, female, weighing 17-21 g. Provided by the animal house of Zhejiang Cell Biomedical Research Co., Ltd.
(1) Taking tumor from C57BL/6J mouse under aseptic condition, grinding and diluting it by physiological saline 1:3 (weight:volume), and giving hypodermic inoculation 0.2 ml per mouse in the armpit of the right forelimb of each mouse. dividing the mice into 7 groups randomly the next day, 10 in each group.
(2) After inoculation, waiting till the tumor has grown to the accessible size, administering medicine according to body weight, 0.5 ml/20 g intravenous, for 11 days, putting the mice to death on the 19th after inoculation, taking out and weighing the tumor, and calculating the tumor inhibiting rate.
as §15

S180 sarcoma [3] = conditions: for 0 d weight / 11 d weight without tumor / Tumor inhibiting rate % / Tumor weight: i.v., S180 sarcoma-bearing mice; remark: listed apart in the source
Source text: as §6
(2) Control product: Cyclophosphamide for injection (CTX), Jiangsu Hengrui Pharmaceutical Inc. Co. Batch No.: 04123021 Dissolved by physiological saline for preparation.
as §7
(2) 50 KM mice, female, weighting 18-22 g, provided by Zhejing College of Traditional Chinese Medicine.
(1) Drawing ascites under aseptic condition from mouse bearing S180 sarcoma, diluting with physiologic saline 1:3, giving subcutaneous inoculation in the armpit of the right forelimb of the KM mice with 0.2 ml each; dividing the mice into 5 groups randomly the next day, 10 in each group.
as §8, §9, §10, §11, §12, §13, §14, §15

Water solubility = type: physicochemical

## COc1ccc(CCc2cc(OC)c(OC)c(OC)c2)cc1OS(=O)(=O)[O-].[Na+] [AS, 3,4,5,4′-tetramethoxyl-α,β-diphenylethane-3′-O-sodium sulphate]
[1]; observed 14 days, read-out: LD50
  LD50 at 14 days: 1080 mg/kg
[1]; read-out: LD50 (Feiller correction) 95% confidence interval
  LD50 at 14 days: 1030 to 1130 mg/kg
KunMing (KM) mice; 900 mg/kg
  Death rate in total % Total: 0%
  Death rate in total % ♀: 0%
  Death rate in total % ♂: 0%
  Deaths days 1 ♀: 0
  Deaths days 1 ♂: 0
  Deaths days 2 ♀: 0
  Deaths days 2 ♂: 0
  Deaths days 3 ♀: 0
  Deaths days 3 ♂: 0
  Deaths days 4 ♀: 0
  Deaths days 4 ♂: 0
  Deaths hours 0-4 ♀: 0
  Deaths hours 0-4 ♂: 0
KunMing (KM) mice; 953 mg/kg
  Death rate in total % Total: 0%
  Death rate in total % ♀: 0%
  Death rate in total % ♂: 0%
  Deaths days 1 ♀: 0
  Deaths days 1 ♂: 0
  Deaths days 2 ♀: 0
  Deaths days 2 ♂: 0
  Deaths days 3 ♀: 0
  Deaths days 3 ♂: 0
  Deaths days 4 ♀: 0
  Deaths days 4 ♂: 0
  Deaths hours 0-4 ♀: 0
  Deaths hours 0-4 ♂: 0
KunMing (KM) mice; 1009 mg/kg
  Death rate in total % Total: 40%
  Death rate in total % ♀: 20%
  Death rate in total % ♂: 60%
  Deaths days 1 ♀: 0
  Deaths days 1 ♂: 0
  Deaths days 2 ♀: 0
  Deaths days 2 ♂: 0
  Deaths days 3 ♀: 0
  Deaths days 3 ♂: 0
  Deaths days 4 ♀: 0
  Deaths days 4 ♂: 0
  Deaths hours 0-4 ♀: 1
  Deaths hours 0-4 ♂: 3
KunMing (KM) mice; 1069 mg/kg
  Death rate in total % Total: 80%
  Death rate in total % ♀: 80%
  Death rate in total % ♂: 80%
  Deaths days 1 ♀: 0
  Deaths days 1 ♂: 0
  Deaths days 2 ♀: 0
  Deaths days 2 ♂: 0
  Deaths days 3 ♀: 0
  Deaths days 3 ♂: 0
  Deaths days 4 ♀: 0
  Deaths days 4 ♂: 0
  Deaths hours 0-4 ♀: 4
  Deaths hours 0-4 ♂: 4
KunMing (KM) mice; 1132 mg/kg
  Death rate in total % Total: 60%
  Death rate in total % ♀: 60%
  Death rate in total % ♂: 60%
  Deaths days 1 ♀: 0
  Deaths days 1 ♂: 0
  Deaths days 2 ♀: 0
  Deaths days 2 ♂: 0
  Deaths days 3 ♀: 0
  Deaths days 3 ♂: 0
  Deaths days 4 ♀: 0
  Deaths days 4 ♂: 0
  Deaths hours 0-4 ♀: 3
  Deaths hours 0-4 ♂: 3
KunMing (KM) mice; 1200 mg/kg
  Death rate in total % Total: 70%
  Death rate in total % ♀: 40%
  Death rate in total % ♂: 100%
  Deaths days 1 ♀: 0
  Deaths days 1 ♂: 0
  Deaths days 2 ♀: 0
  Deaths days 2 ♂: 0
  Deaths days 3 ♀: 0
  Deaths days 3 ♂: 0
  Deaths days 4 ♀: 0
  Deaths days 4 ♂: 0
  Deaths hours 0-4 ♀: 2
  Deaths hours 0-4 ♂: 5
KunMing (KM) mice; conclusion from LD50
  toxicity (in words): very low
S180 sarcoma [2]; Dosage 50 mg/kg
  0 d weight: 21.06 ± 0.82 g
  11 d weight without tumor: 25.89 ± 3.32 g
  Tumor inhibiting rate %: 44%
  Tumor weight: 1.63 ± 1.43 g
S180 sarcoma [2]; Dosage 100 mg/kg
  0 d weight: 20.46 ± 1.03 g
  11 d weight without tumor: 28.42 ± 4.13 g
  Tumor inhibiting rate %: 29%
  Tumor weight: 2.07 ± 1.03 g
S180 sarcoma [2]; Dosage 200 mg/kg
  0 d weight: 20.45 ± 0.86 g
  11 d weight without tumor: 27.10 ± 2.44 g
  Tumor inhibiting rate %: 54%
  Tumor weight: 1.34 ± 0.53 g
S180 sarcoma [2]; joint administration with DDP
  effect in inhibiting S180 tumors (in words): fine coordinating effect; also recorded: excellent coordinating effect
Lewis lung cancer; Dosage 50 mg/kg
  Tumor inhibiting rate %: 35.5%
  Tumor weight: 3.03 ± 0.55 g
Lewis lung cancer; Dosage 100 mg/kg
  Tumor inhibiting rate %: 36.4%
  Tumor weight: 2.99 ± 0.50 g
Lewis lung cancer; Dosage 200 mg/kg
  Tumor inhibiting rate %: 52.1%
  Tumor weight: 2.25 ± 0.75 g
Lewis lung cancer; alone
  inhibiting the tumor in murine model of Lewis lung cancer (in words): quite effective
Lewis lung cancer; joint administration with DDP
  inhibiting the tumors in murine model of Lewis lung cancer (in words): certain coordinated effect
S180 sarcoma [3]; Dosage 50 mg/kg
  0 d weight: 21.06 ± 0.82 g
  11 d weight without tumor: 25.89 ± 3.32 g
  Tumor inhibiting rate %: 44%
  Tumor weight: 1.63 ± 1.43 g
S180 sarcoma [3]; Dosage 100 mg/kg
  0 d weight: 20.46 ± 1.03 g
  11 d weight without tumor: 28.42 ± 4.13 g
  Tumor inhibiting rate %: 29%
  Tumor weight: 2.07 ± 1.03 g
S180 sarcoma [3]; Dosage 200 mg/kg
  0 d weight: 20.45 ± 0.86 g
  11 d weight without tumor: 27.10 ± 2.44 g
  Tumor inhibiting rate %: 54%
  Tumor weight: 1.34 ± 0.53 g
S180 sarcoma [3]; result analysis
  inhibitory effect on S180 tumors (in words): excellent inhibitory effect
Water solubility
  water solubility (in words): good water solubility
